Experimental findings from US10487307B2, “Culture method for pluripotent stem cells” (FUJIFILM CORPORATION, priority 2013, dated 2019) are described below.

In series [1] the test system is human iPS cells ("Tic"). The experiment in a line: Cell growth property evaluation 1 (different media). The class given is cell-based. As to conditions: for Cell growth rate: laminin 20 μg/ml, 72 hours, RCP-11 with Essential 8 = 100%, n=3. How it is done: Furthermore, for evaluation, human iPS cells (“Tic”) that were retention-cultured as described in <Cell adhesiveness evaluation 1> of reference example were treated with TrypLE Select (Invitrogen) for 5 minutes at 37° C. and separated into a single cell. After being subjected to centrifugation for 2 minutes at 300 rpm, the cells were collected, suspended in each medium, and used for the evaluation in each example. Herein, Y-27362 ((R)-(+)-trans-N-(4-pyridyl)-4-(1-aminoethyl)-cyclohexane carboxamide.2HCl.H2O, an Rho binding kinase inhibitor, Wako Pure Chemical Industries, Ltd.) was added to all of the media at a final concentration of 10 μM.
Each of RCP-11, RCP-5, and recombinant laminin (Human Recombinant Laminin-511: BIOLAMINA AB) as control was added to and suspended in a predetermined buffer (a dialysis buffer used in <GRAVY value and aggregation characteristics> of reference examples for RCP-11 and RCP-5, and PBS for the recombinant laminin) at the final concentration shown in Table 11, thereby preparing polypeptide solutions. The polypeptide solutions were added to the respective wells of a plasma-treated 96-well plate made of polystyrene (BD Falcon) having a plasma-treated cell culture surface and held as they were so as to be adsorbed onto the plate for 2 hours at 37° C. In this way, a peptide-treated 96-well plate having a polypeptide-coated surface was obtained. The iPS cells suspended in the respective media shown in Table 11 were seeded into the respective wells of the obtained peptide-treated 96-well plate at a cell density of 10,000 cells/well. After the cells were cultured for 72 hours, nonadhesive cells were washed off with PBS, and only adhesive cells were immobilized using 4% by mass of paraformaldehyde (Wako Pure Chemical Industries, Ltd.). By using an Attophos (registered trademark) AP Fluorescent Substrate System (Promega Corporation), the ALP activity was calculated, and from the calibration curve, the number of undifferentiated iPS cells having the ALP activity was calculated. In Table 11, the cell adhesion rate is expressed as a ratio calculated by regarding the number of pluripotent stem cells after the culture for 72 hours in a combination of RCP-11 and Essential 8 as being 100%. n=3.
In Table 11, “% by mass” in the concentration of 2-meracptoethanol is a proportion (w/v %) of mass (g) of 2-meracptoethanol per 100 mL of the total volume of the medium at the time of culture.

The test system of series [2] is human iPS cells ("Tic"). In words: Cell adhesiveness evaluation 1 (ALP activity of adhesive iPS cells). The class given is cell-based. The settings on record: 30,000 cells/well, 24 hours, natural vitronectin (sample 15) = 100%. How it is done:
The cell adhesiveness of human iPS cells (“Tic”: Cell No. JCRB 1331: from National Institute of Biomedical Innovation. [567-0085, 7-6-8 Asagi Saito Ibaraki-City Osaka]) with respect to the aforementioned polypeptides was evaluated in the following manner.
As feeder cells for retaining the human iPS cells, EmbryoMax (registered trademark) (early mouse embryonic fibroblasts: resistant to hygromycin, treated with mitomycin C, derived from C57/BL6, third passage) (Millipore Corporation) was used. By using DMEM (Invitrogen) and a 10% (v/v) fetal bovine serum medium, the feeder cells were cultured for 24 hours and attached to a T25 flask (Corning Incorporated). As a medium for the human iPS cells, the one obtained by adding FGF-2 (Sigma-Aldrich Co, LLC.) to a medium composed as shown in Table 6 at a final concentration of 10 ng/ml was used.
By using the aforementioned medium, the human iPS cells were retained and cultured in a 5% (v/v, the same unit will be used hereinafter) CO2 incubator at 37° C. Except for the day after the seeding of the iPS cells, the medium was replaced every day. The subculture operation was performed by exfoliating the cells by using Dispase II (neutral protease Grade II, Roche) and separating the cells in an appropriate size by a pipetting operation.
The iPS cells cultured as described above were treated with TrypLE Select (Invitrogen) for 5 minutes at 37° C. and separated into a single cell. After being subjected to centrifugation for 2 minutes at 300 rpm, the cells were collected and suspended in TeSR2 (a medium not containing a heterogeneous animal-derived component and a serum component, STEMCELL Technologies.) containing Y-27362 ((R)-(+)-trans-N-(4-pyridyl)-4-(1-aminoethyl)-cyclohexane carboxamide.2HCl.H2O, an Rho binding kinase inhibitor, Wako Pure Chemical Industries, Ltd.) at a final concentration of 10 μM.
Each of RCP-1 to RCP-11, RCP-21, RCP-25, and RCP-26 as control, human vitronectin (extracted from human serum, BD Biosciences), and recombinant laminin (rLaminin-5: Oriental Yeast Co., ltd. and Human Recombinant Laminin-511: BIOLAMINA AB) was added to and suspended in a predetermined buffer (a dialysis buffer used in <GRAVY value and aggregation characteristics> described above for RCP-1 to RCP-11, and PBS for RCP-21, RCP-25, human vitronectin, and recombinant laminin) at the concentration shown in Table 7, thereby preparing samples 1 to 17. The samples were added to the respective wells of a 96-well plate and adsorbed onto the plate by being held for 2 hours at 37° C.
Into the respective wells of the 96-well plate treated with the peptides, iPS cells were seeded at a cell density of 30,000 cells/well. After the cells were cultured for 24 hours, the nonadhesive cells were washed off with PBS, and only the adhesive cells were immobilized by using 4% (v/v) paraformaldehyde (Wako Pure Chemical Industries, Ltd.). By using an Attophos (registered trademark) AP Fluorescent Substrate System (Promega Corporation), the ALP activity was calculated, and from the calibration curve, the number of undifferentiated iPS cells having the ALP activity was calculated. In Table 7, the cell adhesion rate is expressed as a ratio calculated by regarding the cell adhesion rate obtained from the sample 15 using natural vitronectin as being 100%. n=3.

The subject of series [3] is iPS cells. The experiment in a line: Cell growth property evaluation 2 (2-mercaptoethanol concentration in Essential 8). The series is classed as cell-based, human. As to conditions: for Cell growth rate: laminin 20 μg/ml, 72 hours. As to the method:
A cell culture surface coated with RCP-11 was prepared in the same manner as in <Cell growth property evaluation 1> of Example 1. iPS cells collected in the same manner as in <Cell growth property evaluation 1> were suspended in the respective media composed as shown in Table 12 and seeded into wells at a cell density of 10,000 cells/well. After the cells were cultured for 72 hours, the number of cells were quantified in the same manner as in <Cell growth property evaluation 1>, and the cell growth properties were evaluated based on a cell growth rate which is a ratio calculated by regarding the number of cells cultured using RPC-11 as being 100%.

Series [4] has as its system iPS cells. The experiment in a line: Growth evaluation, number of cells after 3 days. The class given is cell-based, human. The settings on record: 5,000 cells/well, sample 1 (RCP-1) = 100%. As to the method:
By adding RCP-1 to RCP-11 and Human Recombinant Laminin-511 as control at the concentration shown in Table 9, samples 1 to 12 were prepared. The samples were seeded into a 96-well plate, onto which each of the polypeptides was adsorbed in the same manner as in <Cell adhesiveness evaluation 1>, at a ratio of 5,000 cells/well and cultured for 3 days in a CO2 incubator at 37° C. The number of cells after 3 days was calculated in the same manner as in <Cell adhesiveness evaluation 1>. In Table 9, the number of cells after 3 days is expressed as a ratio calculated by regarding the number of cells obtained by using the sample 1 as being 100%.

The nature of series [5]: Aggregation after dialysis of purified polypeptide solution. The series is classed as physicochemical. The arrangement: key: G: The formation of an aggregate was not observed.; A: The formation of particles having a particle size of about 100 nm was observed.; B: The formation of an aggregation of particles having a particle size of equal to or greater than 1 mm was visually observed. As to the method: For RCP-1 to RCP-11, each of the purified polypeptide solutions was dialyzed using Slide-A-Lizer (3.5 K MWCO.). Basically, by using a dialysis buffer (PBS, 1.5 M NaCl, 0.5 M L-arginine, 1 mM EDTA, pH 7.4) as an outer dialysate, urea was removed by stepwise dialysis. The concentration of the end-product of dialysis was calculated from the absorbence at 280 nm by using NanoDrop (Thermo Fisher Scientific Inc.).
Whether or not aggregation was occurred was evaluated based on the scale of A, and B as shown below.
G: The formation of an aggregate was not observed.
A: The formation of particles having a particle size of about 100 nm was observed.
B: The formation of an aggregation of particles having a particle size of equal to or greater than 1 mm was visually observed.

With “Laminin-511: recombinant laminin (Human Recombinant Laminin-511: BIOLAMINA AB)”, the “cell growth properties with Essential 8 or NutriStem not containing 2-mercaptoethanol versus media containing it” value in the series with human iPS cells ("Tic") [1] (Table 11) was “a clear correlation could not be confirmed”. The Cell growth rate stood at 45.9% in the series with human iPS cells ("Tic") [1] (medium Essential8, 2-mercaptoethanol 0); 98.8% in the series on human iPS cells ("Tic") [1] (medium NutriStem, 2-mercaptoethanol 0); 93.9% with human iPS cells ("Tic") [1] (medium ReproFF2, 2-mercaptoethanol 102.4 μM (0.0008% by mass)); 103.7% in the series with human iPS cells ("Tic") [1] (medium StemPro hESC SFM, 2-mercaptoethanol 100 μM (0.00078% by mass)); 14.4% with human iPS cells ("Tic") [1] (medium TeSR2, 2-mercaptoethanol 48.6 μM (0.00038% by mass)); 45.9% in the series with iPS cells [3] (Essential8, 2-mercaptoethanol 0). The Cell growth rate in the series with iPS cells [3] (Essential8, 2-mercaptoethanol 10 μM (0.0000078% by mass)) is listed as 48.6%; in the series with iPS cells [3] (Essential8, 2-mercaptoethanol 10 μM (0.000078% by mass)), 48.1%; in the series with iPS cells [3] (Essential8, 2-mercaptoethanol 100 μM (0.00078% by mass)), 44.6%; in the series with iPS cells [3] (Essential8, 2-mercaptoethanol 1 mM (0.0078% by mass)), 40.9%; with iPS cells [3] (Essential8, 2-mercaptoethanol 10 mM (0.078% by mass)), 39.3%. The “Cell adhesion rate (%)” value with human iPS cells ("Tic") [2] (added amount 5.0 μg/cm^2) came to 142.0%. Further, the “dependence of cell growth properties on the concentration of 2-mercaptoethanol” value in the series with iPS cells [3] (Table 12) is recorded as “such characteristics were not observed”. The “Number of cells after 3 days (%)” value in the series with iPS cells [4] (added amount 1.28 μg/cm^2) is on record as 56.8%.

B1: RCP-7: recombinant polypeptide for culture, SEQ ID NO: 21; vitronectin positions 1-55, 269-373, C274S (protein)
chain: MDQESCKGRCTEGFNVDKKCQCDELCSYYQSCCTDYTAECKPQVTRGDVFTMPEDESQEESEGSSLSAVFEHFAMMQRDSWEDIFELLFWGRTSAGTRQPQFISRDWHGVPGQVDAAMAGRIYISGMAPRPSLAKKQRFRHRNRKGYRSQRGHSRGRNQN
modifications: Vitronectin-derived Recombinant Protein (RCP-7)
notes: vitronectin positions 1-55, 269-373, C274S
Consider B1, for which the “Cell adhesion rate (%)” value with human iPS cells ("Tic") [2] (added amount 5 μg/cm^2, n=3) came out at 88.6 ± 8.1%. In addition, the Aggregation entry in series [5] is reported as “A”. Besides, the “Number of cells after 3 days (%)” value in the series on iPS cells [4] (added amount 5 μg/cm^2) came out at 89.9%.

B2: RCP-8: recombinant polypeptide for culture, SEQ ID NO: 22; vitronectin positions 1-55, 269-373, 374-379, C274S (protein)
chain: MDQESCKGRCTEGFNVDKKCQCDELCSYYQSCCTDYTAECKPQVTRGDVFTMPEDESQEESEGSSLSAVFEHFAMMQRDSWEDIFELLFWGRTSAGTRQPQFISRDWHGVPGQVDAAMAGRIYISGMAPRPSLAKKQRFRHRNRKGYRSQRGHSRGRNQNSRRPSR
modifications: Vitronectin-derived Recombinant Protein (RCP-8)
notes: vitronectin positions 1-55, 269-373, 374-379, C274S
B2: the “Cell adhesion rate (%)” value in the series with human iPS cells ("Tic") [2] (added amount 5 μg/cm^2, n=3) was 89.2 ± 1.4%. Moreover, the Aggregation entry in series [5] was “A”. Also, the “Number of cells after 3 days (%)” value in the series with iPS cells [4] (added amount 5 μg/cm^2) was 171.0%.

B3: RCP-9: recombinant polypeptide for culture, SEQ ID NO: 23; vitronectin positions 1-55, 269-373, 374-389, C274S (protein)
chain: MDQESCKGRCTEGFNVDKKCQCDELCSYYQSCCTDYTAECKPQVTRGDVFTMPEDESQEESEGSSLSAVFEHFAMMQRDSWEDIFELLFWGRTSAGTRQPQFISRDWHGVPGQVDAAMAGRIYISGMAPRPSLAKKQRFRHRNRKGYRSQRGHSRGRNQNSRRPSRATWLSLFSSE
modifications: Vitronectin-derived Recombinant Protein (RCP-9)
notes: vitronectin positions 1-55, 269-373, 374-389, C274S
For B3, the “Cell adhesion rate (%)” value in the series with human iPS cells ("Tic") [2] (added amount 20 μg/cm^2, n=3) is on record as 95.5 ± 10.2%. In series [5], the Aggregation entry was “B (The formation of an aggregation of particles having a particle size of equal to or greater than 1 mm was visually observed.)”. Moreover, in the series with iPS cells [4] (added amount 20 μg/cm^2), the “Number of cells after 3 days (%)” value was found to be 105.8%.
